In US10710978B2, “STK4 inhibitors for treatment of hematologic malignancies” (Dana-Farber Cancer Institute, Inc., priority 2015, dated 2020):
Read-outs that look alike come from different tables or passages of the source.

Legend:
Experiment in all cases: KiNativ assay
Format in all cases: binding
ACK = ACK (Homo sapiens (Human), UniProt Q07912); details: H929 live cell
Description: (§1) Biochemical IC50s of the compounds of the present disclosure against various kinases were measured in a KiNativ assay. Compounds were screened in duplicate at 10 μM in H929 live cell. IC50 was measured via Mass spectroscopy (MS).

CDK11, CDK8 = details: H929 live cell
Description: as §1

CDK2 = CDK2 (Homo sapiens (Human), UniProt P24941); details: H929 live cell
Description: as §1

CDK7 = CDK7 (Homo sapiens (Human), UniProt P50613); details: H929 live cell
Description: as §1

CSK = CSK (Homo sapiens (Human), UniProt P41240); details: H929 live cell
Chain of CSK (P41240 whole entry): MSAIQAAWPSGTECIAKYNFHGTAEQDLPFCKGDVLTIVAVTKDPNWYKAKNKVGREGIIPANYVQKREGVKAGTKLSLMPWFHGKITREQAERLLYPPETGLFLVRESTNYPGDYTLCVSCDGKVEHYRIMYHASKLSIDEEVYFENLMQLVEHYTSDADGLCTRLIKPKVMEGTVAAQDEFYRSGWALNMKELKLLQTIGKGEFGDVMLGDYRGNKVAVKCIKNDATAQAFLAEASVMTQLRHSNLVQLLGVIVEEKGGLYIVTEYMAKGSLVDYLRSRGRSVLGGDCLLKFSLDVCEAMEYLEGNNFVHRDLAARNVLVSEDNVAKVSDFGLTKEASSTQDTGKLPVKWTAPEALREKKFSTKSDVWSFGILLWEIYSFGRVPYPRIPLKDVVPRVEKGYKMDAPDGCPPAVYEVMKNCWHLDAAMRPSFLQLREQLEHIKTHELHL
Description: as §1

CaMK2d = CaMK2d (Homo sapiens (Human), UniProt Q13557); details: H929 live cell
Chain of CaMK2d (Q13557 whole entry): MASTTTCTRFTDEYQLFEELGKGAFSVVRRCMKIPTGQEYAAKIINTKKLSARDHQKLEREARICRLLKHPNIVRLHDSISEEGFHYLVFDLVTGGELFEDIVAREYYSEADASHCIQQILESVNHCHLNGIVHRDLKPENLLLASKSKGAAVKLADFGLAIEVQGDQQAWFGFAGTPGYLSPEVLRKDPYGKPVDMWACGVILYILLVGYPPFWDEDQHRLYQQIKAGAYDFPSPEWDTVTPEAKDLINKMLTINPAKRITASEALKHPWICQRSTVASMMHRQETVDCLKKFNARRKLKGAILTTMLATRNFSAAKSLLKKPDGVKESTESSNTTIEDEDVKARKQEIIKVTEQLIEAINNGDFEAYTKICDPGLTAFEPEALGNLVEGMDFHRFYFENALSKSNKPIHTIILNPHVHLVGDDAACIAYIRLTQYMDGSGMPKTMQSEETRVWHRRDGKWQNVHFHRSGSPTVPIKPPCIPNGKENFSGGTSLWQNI
Description: as §1

CaMK2g = CaMK2g (Homo sapiens (Human), UniProt Q13555); details: H929 live cell
Description: as §1

DGKH = DGKH (Homo sapiens (Human), UniProt Q86XP1); details: H929 live cell
Description: as §1

ILK = ILK (Homo sapiens (Human), UniProt Q13418); details: H929 live cell
Description: as §1

JAK1 domain2 = JAK1 domain2 (Homo sapiens (Human), UniProt P23458); details: H929 live cell
Description: as §1

LKB1 = LKB1 (Homo sapiens (Human), UniProt Q15831); details: H929 live cell
Description: as §1

LOK = LOK (Homo sapiens (Human), UniProt O94804); details: H929 live cell
Description: as §1

MAP2K3 = MAP2K3 (Homo sapiens (Human), UniProt P46734); details: H929 live cell
Chain of MAP2K3 (P46734 whole entry): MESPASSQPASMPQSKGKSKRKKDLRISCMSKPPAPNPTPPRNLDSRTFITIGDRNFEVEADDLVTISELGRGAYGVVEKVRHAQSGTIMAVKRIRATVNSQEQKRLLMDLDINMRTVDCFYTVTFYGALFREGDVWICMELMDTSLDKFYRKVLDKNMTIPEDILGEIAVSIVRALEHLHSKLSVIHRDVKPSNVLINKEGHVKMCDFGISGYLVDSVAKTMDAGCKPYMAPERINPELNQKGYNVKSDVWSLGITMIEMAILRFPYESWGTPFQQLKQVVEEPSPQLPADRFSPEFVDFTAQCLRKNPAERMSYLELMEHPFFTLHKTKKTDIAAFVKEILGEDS
Description: as §1

MAP3K5 = MAP3K5 (Homo sapiens (Human), UniProt Q99683); details: H929 live cell
Description: as §1

MARK2 = MARK2 (Homo sapiens (Human), UniProt Q7KZI7); details: H929 live cell
Chain of MARK2 (Q7KZI7 whole entry): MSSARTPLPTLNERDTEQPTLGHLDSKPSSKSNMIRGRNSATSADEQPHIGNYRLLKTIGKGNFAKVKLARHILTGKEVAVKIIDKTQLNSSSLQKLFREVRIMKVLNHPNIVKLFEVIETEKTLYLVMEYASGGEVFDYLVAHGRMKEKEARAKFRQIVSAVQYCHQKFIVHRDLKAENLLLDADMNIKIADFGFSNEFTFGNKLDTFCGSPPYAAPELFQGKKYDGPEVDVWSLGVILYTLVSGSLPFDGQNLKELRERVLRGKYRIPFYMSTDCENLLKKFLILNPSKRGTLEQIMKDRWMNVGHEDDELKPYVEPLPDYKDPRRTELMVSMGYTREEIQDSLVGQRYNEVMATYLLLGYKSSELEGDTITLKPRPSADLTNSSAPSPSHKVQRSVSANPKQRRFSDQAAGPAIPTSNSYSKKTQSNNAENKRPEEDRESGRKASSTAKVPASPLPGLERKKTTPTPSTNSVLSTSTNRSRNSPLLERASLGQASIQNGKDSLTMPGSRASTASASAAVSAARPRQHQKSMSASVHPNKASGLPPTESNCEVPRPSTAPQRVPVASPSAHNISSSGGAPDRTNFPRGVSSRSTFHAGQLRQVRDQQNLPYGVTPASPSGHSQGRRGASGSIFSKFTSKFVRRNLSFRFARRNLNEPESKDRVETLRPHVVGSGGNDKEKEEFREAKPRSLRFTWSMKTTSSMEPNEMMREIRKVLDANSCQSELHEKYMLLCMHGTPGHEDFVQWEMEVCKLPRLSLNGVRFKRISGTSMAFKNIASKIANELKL
Description: as §1

MLK3 = MLK3 (Homo sapiens (Human), UniProt Q16584); details: H929 live cell
Chain of MLK3 (Q16584 whole entry): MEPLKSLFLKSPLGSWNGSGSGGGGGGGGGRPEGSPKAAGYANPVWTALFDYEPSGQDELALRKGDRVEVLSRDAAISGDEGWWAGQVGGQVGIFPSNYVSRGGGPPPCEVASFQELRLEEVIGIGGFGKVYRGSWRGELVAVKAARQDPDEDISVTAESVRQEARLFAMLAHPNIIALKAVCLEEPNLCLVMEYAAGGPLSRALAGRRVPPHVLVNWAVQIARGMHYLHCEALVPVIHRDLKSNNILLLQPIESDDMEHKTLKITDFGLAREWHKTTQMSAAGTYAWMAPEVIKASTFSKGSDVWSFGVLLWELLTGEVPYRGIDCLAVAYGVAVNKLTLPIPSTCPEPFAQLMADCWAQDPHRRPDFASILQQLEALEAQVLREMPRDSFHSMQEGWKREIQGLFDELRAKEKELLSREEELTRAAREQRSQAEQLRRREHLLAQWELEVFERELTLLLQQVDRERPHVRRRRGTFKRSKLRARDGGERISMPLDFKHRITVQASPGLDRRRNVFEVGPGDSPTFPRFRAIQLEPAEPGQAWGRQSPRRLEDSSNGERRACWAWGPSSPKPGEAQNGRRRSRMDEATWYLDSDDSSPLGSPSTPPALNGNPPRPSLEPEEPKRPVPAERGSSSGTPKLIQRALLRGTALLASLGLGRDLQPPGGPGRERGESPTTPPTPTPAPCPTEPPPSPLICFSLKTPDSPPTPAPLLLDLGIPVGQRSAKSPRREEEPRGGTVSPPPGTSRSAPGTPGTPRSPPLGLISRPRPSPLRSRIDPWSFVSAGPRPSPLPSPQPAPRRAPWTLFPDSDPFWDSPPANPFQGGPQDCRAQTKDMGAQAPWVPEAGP
Description: as §1

MST1 = MST1 (Homo sapiens (Human), UniProt Q13043); details: H929 live cell
Chain of MST1 (Q13043 whole entry): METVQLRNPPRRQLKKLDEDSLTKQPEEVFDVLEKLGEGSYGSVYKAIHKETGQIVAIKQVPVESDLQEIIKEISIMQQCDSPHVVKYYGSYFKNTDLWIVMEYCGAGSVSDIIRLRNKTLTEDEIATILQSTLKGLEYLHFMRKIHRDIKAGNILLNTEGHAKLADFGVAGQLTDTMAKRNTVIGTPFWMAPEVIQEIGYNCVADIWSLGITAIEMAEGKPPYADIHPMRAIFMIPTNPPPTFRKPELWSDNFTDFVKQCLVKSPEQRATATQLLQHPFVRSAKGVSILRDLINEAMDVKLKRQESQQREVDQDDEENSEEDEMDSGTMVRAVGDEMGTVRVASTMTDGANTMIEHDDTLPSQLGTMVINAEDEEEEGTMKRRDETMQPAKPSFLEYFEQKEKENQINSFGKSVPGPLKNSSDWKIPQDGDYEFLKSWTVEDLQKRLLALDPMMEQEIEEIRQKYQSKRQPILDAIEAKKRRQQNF
Description: as §1

MST1, MST2 = details: H929 live cell
Description: as §1

MST4, YSK1 = details: H929 live cell
Description: as §1

MST4 = details: H929 live cell
Description: as §1

NDR1 = NDR1 (Homo sapiens (Human), UniProt Q15208); details: H929 live cell
Description: as §1

PAN3 = PAN3 (Homo sapiens (Human), UniProt Q58A45); details: H929 live cell
Description: as §1

PIP4K2C = PIP4K2C (Homo sapiens (Human), UniProt Q8TBX8); details: H929 live cell
Description: as §1

PITSLRE = details: H929 live cell
Description: as §1

PKCz = PKCz (Homo sapiens (Human), UniProt Q05513); details: H929 live cell
Description: as §1

PKD3 = PKD3 (Homo sapiens (Human), UniProt O94806); details: H929 live cell
Chain of PKD3 (O94806 whole entry): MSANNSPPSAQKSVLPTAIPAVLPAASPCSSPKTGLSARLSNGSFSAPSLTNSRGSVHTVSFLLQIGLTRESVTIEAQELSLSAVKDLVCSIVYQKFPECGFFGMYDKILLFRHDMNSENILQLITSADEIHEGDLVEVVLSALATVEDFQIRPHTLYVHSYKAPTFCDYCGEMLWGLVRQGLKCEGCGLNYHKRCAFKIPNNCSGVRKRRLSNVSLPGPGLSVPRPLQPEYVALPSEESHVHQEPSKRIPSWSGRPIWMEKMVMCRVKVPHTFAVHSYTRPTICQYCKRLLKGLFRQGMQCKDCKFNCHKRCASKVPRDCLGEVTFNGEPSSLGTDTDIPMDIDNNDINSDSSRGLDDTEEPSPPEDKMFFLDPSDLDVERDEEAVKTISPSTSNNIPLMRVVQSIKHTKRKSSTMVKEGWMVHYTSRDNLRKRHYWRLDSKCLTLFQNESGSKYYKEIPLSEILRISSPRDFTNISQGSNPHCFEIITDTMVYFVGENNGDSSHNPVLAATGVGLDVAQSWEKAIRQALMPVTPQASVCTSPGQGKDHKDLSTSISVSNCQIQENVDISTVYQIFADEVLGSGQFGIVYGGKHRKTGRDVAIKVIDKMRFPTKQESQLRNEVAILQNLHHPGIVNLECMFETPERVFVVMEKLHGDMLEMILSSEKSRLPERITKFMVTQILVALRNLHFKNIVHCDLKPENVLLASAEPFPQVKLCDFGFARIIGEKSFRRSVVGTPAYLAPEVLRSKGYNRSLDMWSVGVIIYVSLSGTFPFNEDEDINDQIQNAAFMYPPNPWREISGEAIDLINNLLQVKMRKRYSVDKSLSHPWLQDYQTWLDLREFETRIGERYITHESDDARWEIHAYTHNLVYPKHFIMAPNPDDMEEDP
Description: as §1

PKN1 = PKN1 (Homo sapiens (Human), UniProt Q16512); details: H929 live cell, read-out: inhibition (10 μM)
Description: as §1

PRPK = PRPK (Homo sapiens (Human), UniProt Q96S44); details: H929 live cell
Description: as §1

RSK1 domain2 = RSK1 domain2 (Homo sapiens (Human), UniProt Q15418); details: H929 live cell
Description: as §1

RSK2 domain2 = RSK2 domain2 (Homo sapiens (Human), UniProt P51812); details: H929 live cell
Description: as §1

SRPK1 = SRPK1 (Homo sapiens (Human), UniProt Q96SB4); details: H929 live cell
Chain of SRPK1 (Q96SB4 whole entry): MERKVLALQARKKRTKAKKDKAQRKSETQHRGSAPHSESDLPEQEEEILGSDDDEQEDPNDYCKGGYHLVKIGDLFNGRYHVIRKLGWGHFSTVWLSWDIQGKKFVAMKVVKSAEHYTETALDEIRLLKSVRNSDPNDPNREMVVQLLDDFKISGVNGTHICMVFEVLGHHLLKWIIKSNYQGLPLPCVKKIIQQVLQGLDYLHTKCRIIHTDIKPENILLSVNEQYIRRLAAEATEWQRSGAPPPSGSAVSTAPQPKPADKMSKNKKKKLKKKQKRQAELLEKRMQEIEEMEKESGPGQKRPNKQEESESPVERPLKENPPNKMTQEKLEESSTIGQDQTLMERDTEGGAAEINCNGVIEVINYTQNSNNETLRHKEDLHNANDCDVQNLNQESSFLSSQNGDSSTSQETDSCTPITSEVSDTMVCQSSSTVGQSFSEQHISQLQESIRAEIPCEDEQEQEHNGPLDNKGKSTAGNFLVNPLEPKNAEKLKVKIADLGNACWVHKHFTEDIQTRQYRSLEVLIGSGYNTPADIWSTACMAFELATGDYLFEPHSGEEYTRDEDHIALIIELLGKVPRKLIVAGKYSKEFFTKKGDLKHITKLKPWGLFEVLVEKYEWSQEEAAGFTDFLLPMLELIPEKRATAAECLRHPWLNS
Description: as §1

STLK3 = STLK3 (Homo sapiens (Human), UniProt Q9UEW8); details: H929 live cell
Description: as §1

[1] = tested on: ZC1/HGK, ZC2/TNIK, ZC3/MINK; details: H929 live cell
Description: as §1

eEF2K = eEF2K (Homo sapiens (Human), UniProt O00418); details: H929 live cell
Description: as §1

[2] = range class, read-out: % inhibition

Nc1ncc(-c2ccc(NS(=O)(=O)C3CC3)cc2OC2CCCCC2)cc1-c1ccc2c(c1)CCNC2=O [Compound I-65, N-(4-(6-amino-5-(1-oxo-1,2,3,4-tetrahydroisoquinolin-6-yl)pyridin-3-yl)-3-(cyclohexyloxy)phenyl) cyclopropanesulfonamide]
inhibition at 10 µM (ACK; [2]): 0% | inhibition at 10 µM (ACK; read-out: inhibition (10 μM)): 30.7% | % inhibition (CDK11, CDK8; 10 μM, range class): 0.0% | inhibition (10 μM) (CDK11, CDK8): 31.3% | inhibition at 10 µM (CDK2; [2]): 0% | inhibition at 10 µM (CDK2; read-out: inhibition (10 μM)): 21.6% | inhibition at 10 µM (CDK7; [2]): 0% | inhibition at 10 µM (CDK7; read-out: inhibition (10 μM)): 29.9% | inhibition at 10 µM (CSK; [2]): 0% | inhibition at 10 µM (CSK; read-out: inhibition (10 μM)): 0.1% | inhibition at 10 µM (CaMK2d; [2]): 0% | inhibition at 10 µM (CaMK2d; read-out: inhibition (10 μM)): 4.2% | inhibition at 10 µM (CaMK2g; [2]): 0% | inhibition at 10 µM (CaMK2g; read-out: inhibition (10 μM)): -12% | inhibition at 10 µM (DGKH; [2]): 0% | inhibition at 10 µM (DGKH; read-out: inhibition (10 μM)): 7.3% | inhibition at 10 µM (ILK; [2]): 0% | inhibition at 10 µM (ILK; read-out: inhibition (10 μM)): -35% | inhibition at 10 µM (JAK1 domain2; [2]): 0% | inhibition at 10 µM (JAK1 domain2; read-out: inhibition (10 μM)): 10.1% | inhibition at 10 µM (LKB1; [2]): 0% | inhibition at 10 µM (LKB1; read-out: inhibition (10 μM)): 27.4% | inhibition at 10 µM (LOK; [2]): > 90% | inhibition at 10 µM (LOK; read-out: inhibition (10 μM)): 98.7% | inhibition at 10 µM (MAP2K3; [2]): 0% | inhibition at 10 µM (MAP2K3; read-out: inhibition (10 μM)): -6.1% | inhibition at 10 µM (MAP3K5; [2]): 0% | inhibition at 10 µM (MAP3K5; read-out: inhibition (10 μM)): -12.4% | inhibition at 10 µM (MARK2; [2]): 0% | inhibition at 10 µM (MARK2; read-out: inhibition (10 μM)): -45.1% | inhibition at 10 µM (MLK3; [2]): 75 to 90% | inhibition at 10 µM (MLK3; read-out: inhibition (10 μM)): 82.7% | inhibition at 10 µM (MST1; [2]): > 90% | inhibition at 10 µM (MST1; read-out: inhibition (10 μM)): 96.7% | % inhibition (MST1, MST2; 10 μM, range class): >90% | inhibition (10 μM) (MST1, MST2): 98.7% | % inhibition (MST4, YSK1; 10 μM, range class): 35-40% | inhibition (10 μM) (MST4, YSK1): 46.3% | % inhibition (MST4; 10 μM, range class): 35-40% | inhibition (10 μM) (MST4): 47.7% | inhibition at 10 µM (NDR1; [2]): 0% | inhibition at 10 µM (NDR1; read-out: inhibition (10 μM)): -14.5% | inhibition at 10 µM (PAN3; [2]): 0% | inhibition at 10 µM (PAN3; read-out: inhibition (10 μM)): 5.8% | inhibition at 10 µM (PIP4K2C; [2]): > 90% | inhibition at 10 µM (PIP4K2C; read-out: inhibition (10 μM)): 90.2% | % inhibition (PITSLRE; 10 μM, range class): 0.0% | inhibition (10 μM) (PITSLRE): −17.5% | inhibition at 10 µM (PKCz; [2]): 0% | inhibition at 10 µM (PKCz; read-out: inhibition (10 μM)): -12.4% | inhibition at 10 µM (PKD3; [2]): 0% | inhibition at 10 µM (PKD3; read-out: inhibition (10 μM)): -24.2% | inhibition at 10 µM (PKN1): 35.9% | inhibition at 10 µM (PRPK; [2]): 0% | inhibition at 10 µM (PRPK; read-out: inhibition (10 μM)): -55.9% | inhibition at 10 µM (RSK1 domain2; [2]): 0% | inhibition at 10 µM (RSK1 domain2; read-out: inhibition (10 μM)): -0.7% | inhibition at 10 µM (RSK2 domain2; [2]): 0% | inhibition at 10 µM (RSK2 domain2; read-out: inhibition (10 μM)): 7.2% | inhibition at 10 µM (SRPK1; [2]): 0% | inhibition at 10 µM (SRPK1; read-out: inhibition (10 μM)): -25.4% | inhibition at 10 µM (STLK3; [2]): 0% | inhibition at 10 µM (STLK3; read-out: inhibition (10 μM)): 31.4% | % inhibition ([1]; 10 μM, range class): >90% | inhibition (10 μM) [1]: 96.6% | inhibition at 10 µM (eEF2K; [2]): 0% | inhibition at 10 µM (eEF2K; read-out: inhibition (10 μM)): -21.7%
